Test results taken from ChEMBL document CHEMBL4414672, “Synthesis of certain benzothieno[3,2-d]pyrimidine derivatives as a selective SIRT2 inhibitors” (Eur J Med Chem, 2020).

Tests used:
Format in all cases: functional
MOLT-4 = assay: Growth inhibition of human MOLT4 cells at 10^-5 M incubated for 48 hrs by sulforhodamine B assay; settings: MOLT-4, 48 h, read-out: GI
CAKI-1 = assay: Growth inhibition of human Caki1 cells at 10^-5 M incubated for 48 hrs by sulforhodamine B assay; settings: CAKI-1, 48 h, read-out: GI
HT-29 = assay: Growth inhibition of human HT-29 cells at 10^-5 M incubated for 48 hrs by sulforhodamine B assay; settings: HT-29, 48 h, read-out: GI
DU-145 = assay: Growth inhibition of human DU145 cells at 10^-5 M incubated for 48 hrs by sulforhodamine B assay; settings: DU-145, 48 h, read-out: GI
UACC-62 = assay: Growth inhibition of human UACC62 cells at 10^-5 M incubated for 48 hrs by sulforhodamine B assay; settings: UACC-62, 48 h, read-out: GI
MDA-MB-468 = assay: Growth inhibition of human MDA-MB-468 cells at 10^-5 M incubated for 48 hrs by sulforhodamine B assay; settings: MDA-MB-468, 48 h, read-out: GI
BT-549 = assay: Growth inhibition of human BT549 cells at 10^-5 M incubated for 48 hrs by sulforhodamine B assay; settings: BT-549, 48 h, read-out: GI
786-0 = assay: Growth inhibition of human 786-0 cells at 10^-5 M incubated for 48 hrs by sulforhodamine B assay; settings: 786-0, 48 h, read-out: GI
SK-MEL-28 = assay: Growth inhibition of human SK-MEL-28 cells at 10^-5 M incubated for 48 hrs by sulforhodamine B assay; settings: SK-MEL-28, 48 h, read-out: GI
RXF 393 = assay: Growth inhibition of human RXF393 cells at 10^-5 M incubated for 48 hrs by sulforhodamine B assay; settings: RXF 393, 48 h, read-out: GI
UACC-257 = assay: Growth inhibition of human UACC257 cells at 10^-5 M incubated for 48 hrs by sulforhodamine B assay; settings: UACC-257, 48 h, read-out: GI
MCF7 = assay: Growth inhibition of human MCF7 cells at 10^-5 M incubated for 48 hrs by sulforhodamine B assay; settings: MCF7, 48 h, read-out: GI
HOP-62 = assay: Growth inhibition of human HOP62 cells at 10^-5 M incubated for 48 hrs by sulforhodamine B assay; settings: HOP-62, 48 h, read-out: GI
HL-60(TB) = assay: Growth inhibition of human HL-60(TB) cells at 10^-5 M incubated for 48 hrs by sulforhodamine B assay; settings: HL-60, 48 h, read-out: GI
SR = assay: Growth inhibition of human SR cells at 10^-5 M incubated for 48 hrs by sulforhodamine B assay; settings: read-out: GI
OVCAR-5 = assay: Growth inhibition of human OVCAR5 cells at 10^-5 M incubated for 48 hrs by sulforhodamine B assay; settings: OVCAR-5, 48 h, read-out: GI
HCC 2998 = assay: Growth inhibition of human HCC2998 cells at 10^-5 M incubated for 48 hrs by sulforhodamine B assay; settings: HCC 2998, 48 h, read-out: GI
NCI-H226 = assay: Growth inhibition of human NCI-H226 cells at 10^-5 M incubated for 48 hrs by sulforhodamine B assay; settings: NCI-H226, 48 h, read-out: GI
UO-31 = assay: Growth inhibition of human UO31 cells at 10^-5 M incubated for 48 hrs by sulforhodamine B assay; settings: UO-31, 48 h, read-out: GI
MDA-MB-231 = assay: Growth inhibition of human MDA-MB-231 cells at 10^-5 M incubated for 48 hrs by sulforhodamine B assay; settings: MDA-MB-231, 48 h, read-out: GI

| SMILES | inhibition of growth at 10 µM (MOLT-4) [%] | inhibition of growth at 10 µM (CAKI-1) [%] | inhibition of growth at 10 µM (HT-29) [%] | inhibition of growth at 10 µM (DU-145) [%] | inhibition of growth at 10 µM (UACC-62) [%] | inhibition of growth at 10 µM (MDA-MB-468) [%] | inhibition of growth at 10 µM (BT-549) [%] | inhibition of growth at 10 µM (786-0) [%] | inhibition of growth at 10 µM (SK-MEL-28) [%] | inhibition of growth at 10 µM (RXF 393) [%] | inhibition of growth at 10 µM (UACC-257) [%] | inhibition of growth at 10 µM (MCF7) [%] | inhibition of growth at 10 µM (HOP-62) [%] | inhibition of growth at 10 µM (HL-60(TB)) [%] | inhibition of growth at 10 µM (SR) [%] | inhibition of growth at 10 µM (OVCAR-5) [%] | inhibition of growth at 10 µM (HCC 2998) [%] | inhibition of growth at 10 µM (NCI-H226) [%] | inhibition of growth at 10 µM (UO-31) [%] | inhibition of growth at 10 µM (MDA-MB-231) [%] |
| --- | --- | --- | --- | --- | --- | --- | --- | --- | --- | --- | --- | --- | --- | --- | --- | --- | --- | --- | --- | --- |
| S=C1Nc2c(sc3ccc(Cl)cc23)C(c2cccc(Br)c2)N1 (stereo not given) | 11.5 | 19.2 | 0.35 | -11.9 | 13 | -5.67 | -10.2 | -0.33 | -15.7 | -7.19 | -8.63 | -11.9 | 15.5 | -6.42 | 16.3 | -0.03 | -27.2 | 15.2 | -18.3 | 9.68 |
| O=C1Nc2c(sc3ccc(Cl)cc23)C(c2ccc3ccccc3c2)N1 (stereo not given) | 12.9 | 23.3 | -0.76 | -6.96 | -1.09 | -13.7 | -1.2 | 6.06 | 3.5 | -10.1 | 14.5 | 22.5 | 13.9 | 5.39 | 20.9 | 8.06 | -14.6 | 7.25 | 37.4 | 14.8 |
| O=C1CC(=O)N(C2=Nc3c(sc4ccc(Cl)cc34)C(c3cccc([N+](=O)[O-])c3)N2)N1 (stereo not given) | -4.64 | 10.9 | -6.83 | -15.1 | 8.04 | -2.44 | -19.4 | -4.83 | -19.8 | 10.9 | -8.39 | 21.7 | 9.64 | -8 | -3.11 | -2.6 | -8.39 | 19.4 | 38 | 11.8 |
| O=C1/C(=C\c2cccc(Br)c2)Sc2ccc(Cl)cc21 | -5.33 | 10.1 | -10.6 | -12.3 | 2.69 | -18.6 | -26.2 | -3.61 | -20.5 | -5.49 | -6.58 | -12.3 | 3.1 | -5.53 | -4.42 | -9.67 | -3.41 | 10.4 | -29.1 | -3.31 |
| O=C1Nc2c(sc3ccc(Cl)cc23)C(c2cccc(Br)c2)N1 (stereo not given) | 5.84 | 17.7 | -7.8 | -8.69 | 8.42 | -26.3 | -17.5 | -1.2 | -12.8 | -18.1 | -7.95 | -8.69 | 22.2 | 7.88 | 20.9 | -1.01 | -23.5 | 3.66 | -23.4 | 6.83 |
| O=[N+]([O-])c1cccc(C2NC(=S)Nc3c2sc2ccc(Cl)cc32)c1 (stereo not given) | 9.49 | 22 | 4 | -8.3 | 8.94 | 5.75 | -0.23 | 1.48 | -8.2 | -9.88 | -0.4 | -8.3 | 21.8 | -2.41 | 20.3 | 0.45 | -13.8 | 20.5 | -6.1 | 23.7 |
| O=C1/C(=C\c2cccc([N+](=O)[O-])c2)Sc2ccc(Cl)cc21 | 2.66 | -4.55 | -3.12 | -3.94 | 29.5 | 13.1 | 20.8 | -1.44 | -11.7 | 15.7 | -6.4 | 22.4 | -0.47 | -10.8 | 54.8 | -1.89 | -36.5 | 5.97 | 11.3 | 9.23 |
| Oc1ccccc1C1NC(=S)Nc2c1sc1ccc(Cl)cc21 (stereo not given) | 9.69 | 12.9 | -1.54 | -7.9 | 13.1 | 8.75 | -5 | 6.17 | -6.12 | 2.85 | -1.4 | -7.9 | 5.51 | -4.7 | 16.3 | 5.8 | -10.6 | 21.8 | -8.34 | 27.4 |
| O=C1Nc2c(sc3ccc(Cl)cc23)C(c2ccccc2O)N1 (stereo not given) | 14.7 | 18.5 | -3.51 | -8.18 | 13.9 | 0.19 | 4.41 | 1.65 | -7.33 | -4.74 | 9.85 | -8.18 | 13.9 | 1.61 | 19.1 | 1.92 | -15.3 | 18.7 | -18.6 | 19.7 |
| N=C1Nc2c(sc3ccc(Cl)cc23)C(c2ccc3ccccc3c2)N1 (stereo not given) | 10.9 | -12.5 | -3.45 | 12.1 | 6 | -6.39 | 5.47 | 5.33 | 2.06 | 0.36 | 8.66 | 6.28 | 13.8 | -3.45 | -0.62 | -3.77 | 10.9 | 6.58 | 14.6 | -0.83 |
